Measurements as given in ChEMBL document CHEMBL5244223, “l,8-Naphthalimide based DNA intercalators and anticancer agents. A systematic review from 2007 to 2017” (Eur J Med Chem, 2018).
In brackets after ≈: the same amount, converted by molar mass.

Key:
Calf thymus DNA = experiment: Binding affinity to calf thymus DNA assessed as DNA intercalation by measuring change in melting temperature by thermal denaturation assay; assay type: nucleic-acid assay; settings: Bos taurus
Staphylococcus aureus = experiment: Antibacterial activity against Staphylococcus aureus MTCC 96 assessed as inhibition of bacterial growth by agar well diffusion assay; assay type: functional
Escherichia coli = experiment: Antibacterial activity against Escherichia coli MTCC 443 assessed as inhibition of bacterial growth by agar well diffusion assay; assay type: functional
Pseudomonas aeruginosa = experiment: Antibacterial activity against Pseudomonas aeruginosa MTCC 741 assessed as inhibition of bacterial growth by agar well diffusion assay; assay type: functional
[1] = tested on: Staphylococcus epidermidis; experiment: Antibacterial activity against Staphylococcus epidermidis MTCC 435 assessed as inhibition of bacterial growth by agar well diffusion assay; assay type: functional
CCRF-CEM = experiment: Antiproliferative activity against human CEM cells assessed as inhibition of cell proliferation incubated for 48 hrs by coulter counter assay; assay type: functional, cell-based
HeLa [2] = experiment: Antiproliferative activity against human HeLa cells assessed as inhibition of cell proliferation incubated for 48 hrs by coulter counter assay; assay type: functional, cell-based
[3] = Antiproliferative activity against human HMEC-1 cells assessed as inhibition of cell proliferation incubated for 48 hrs by coulter counter assay; assay type: toxicity, cell-based
L1210 = experiment: Antiproliferative activity against mouse L1210 cells assessed as inhibition of cell proliferation incubated for 48 hrs by coulter counter assay; assay type: functional, cell-based; settings: L1210, 48 h
K562 = experiment: Cytotoxicity against human K562 cells assessed as inhibition of cell growth incubated for 48 hrs by MTT assay; assay type: functional, cell-based; settings: K562, 48 h
A549 = experiment: Cytotoxicity against human A549 cells assessed as inhibition of cell growth incubated for 48 hrs by MTT assay; assay type: functional, cell-based; settings: A549, 48 h
HeLa [4] = experiment: Cytotoxicity against human HeLa cells assessed as inhibition of cell growth incubated for 48 hrs by MTT assay; assay type: functional, cell-based

SMILES	MIC (Staphylococcus aureus)	MIC (Escherichia coli)	MIC (Pseudomonas aeruginosa)	MIC [1]	IC50 (CCRF-CEM)	IC50 (HeLa [2])	IC50 at 48 h [3]	IC50 (L1210)	further results
O=C1c2ccc3c4c(ccc(c24)C(=O)N1c1nc(-c2cc4cc(Br)ccc4oc2=O)cs1)C(=O)N(c1nc(-c2cc4cc(Br)ccc4oc2=O)cs1)C3=O	18.8 µg/mL (≈ 21.3 µM)	18.8 µg/mL (≈ 21.3 µM)	18.8 µg/mL (≈ 21.3 µM)	18.8 µg/mL (≈ 21.3 µM)					ΔTm (Calf thymus DNA): 0.1 °C
CCOP(=O)(CCOCn1cc(CN2C(=O)c3cccc4cccc(c34)C2=O)nn1)OCC					> 250 µM	> 250 µM	> 250 µM	> 250 µM	
O=C1c2ccc3c4c(ccc(c24)C(=O)N1c1nc(-c2cc4cc(Br)cc(Br)c4oc2=O)cs1)C(=O)N(c1nc(-c2cc4cc(Br)cc(Br)c4oc2=O)cs1)C3=O	18.8 µg/mL (≈ 18.1 µM)	18.8 µg/mL (≈ 18.1 µM)	18.8 µg/mL (≈ 18.1 µM)	18.8 µg/mL (≈ 18.1 µM)					ΔTm (Calf thymus DNA): 0.1 °C
CCOP(=O)(CCCCn1cc(CN2C(=O)c3cccc4c(Br)ccc(c34)C2=O)nn1)OCC					> 250 µM	> 250 µM	> 250 µM	> 250 µM	
COc1cccc2cc(-c3csc(N4C(=O)c5cccc6cccc(c56)C4=O)n3)c(=O)oc12	18.8 µg/mL (≈ 41.3 µM)	18.8 µg/mL (≈ 41.3 µM)	18.8 µg/mL (≈ 41.3 µM)	18.8 µg/mL (≈ 41.3 µM)					ΔTm (Calf thymus DNA): 0.1 °C
CCOP(=O)(CCOCCn1cc(CN2C(=O)c3cccc4cccc(c34)C2=O)nn1)OCC					> 250 µM	> 250 µM	> 250 µM	> 250 µM	
CCOP(=O)(Cn1cc(CN2C(=O)c3cccc4c(Br)ccc(c34)C2=O)nn1)OCC					> 250 µM	> 250 µM	> 250 µM	> 250 µM	
O=C1c2cccc3cccc(c23)C(=O)N1c1nc(-c2cc3cc(Br)cc(Br)c3oc2=O)cs1	18.8 µg/mL (≈ 32.2 µM)	18.8 µg/mL (≈ 32.2 µM)	18.8 µg/mL (≈ 32.2 µM)	18.8 µg/mL (≈ 32.2 µM)					ΔTm (Calf thymus DNA): 0.1 °C
O=C(O)c1cn(C2CC2)c2cc(N3CCNCC3)c(F)cc2c1=O [CIPROFLOXACIN]	18.8 µg/mL (≈ 56.6 µM)	18.8 µg/mL (≈ 56.6 µM)	18.8 µg/mL (≈ 56.6 µM)	18.8 µg/mL (≈ 56.6 µM)					
CN(C)CCN1C(=O)c2cccc3cc(NC(=O)CN)cc(c23)C1=O									IC50 (K562): 8.5 µM; IC50 (A549): 4.7 µM; IC50 (HeLa [4]): 21.5 µM
CCOP(=O)(CCOCCn1cc(CN2C(=O)c3cccc4c(Br)ccc(c34)C2=O)nn1)OCC					> 250 µM	> 250 µM	> 250 µM	> 250 µM	
CCOP(=O)(CCOCCn1cc(CN2C(=O)c3cccc4cc([N+](=O)[O-])cc(c34)C2=O)nn1)OCC					> 250 µM	> 250 µM	> 250 µM	> 250 µM	
CCOP(=O)(CC(O)Cn1cc(CN2C(=O)c3cccc4cc([N+](=O)[O-])cc(c34)C2=O)nn1)OCC (stereo not given)					> 250 µM	> 250 µM	> 250 µM	> 250 µM	
CCOP(=O)(CCCn1cc(CN2C(=O)c3cccc4cccc(c34)C2=O)nn1)OCC					> 250 µM	> 250 µM	> 250 µM	> 250 µM	
O=C1c2cccc3cccc(c23)C(=O)N1c1nc(-c2cc3cc(Cl)ccc3oc2=O)cs1	18.8 µg/mL (≈ 40.9 µM)	18.8 µg/mL (≈ 40.9 µM)	18.8 µg/mL (≈ 40.9 µM)	18.8 µg/mL (≈ 40.9 µM)					ΔTm (Calf thymus DNA): 0.1 °C
CN(C)CCN1C(=O)c2cccc3cc(NC(=O)CCNC(=O)C(Cl)Cl)cc(c23)C1=O									IC50 (K562): 8.5 µM; IC50 (A549): 4.7 µM; IC50 (HeLa [4]): 21.5 µM
CN(C)CCN1C(=O)c2cccc3cc(NC(=O)CNC(=O)C(Cl)Cl)cc(c23)C1=O									IC50 (K562): 8.5 µM; IC50 (A549): 4.7 µM; IC50 (HeLa [4]): 21.5 µM
O=C1c2ccc3c4c(ccc(c24)C(=O)N1c1nc(-c2cc4cc(Cl)ccc4oc2=O)cs1)C(=O)N(c1nc(-c2cc4cc(Cl)ccc4oc2=O)cs1)C3=O	18.8 µg/mL (≈ 23.7 µM)	18.8 µg/mL (≈ 23.7 µM)	18.8 µg/mL (≈ 23.7 µM)	18.8 µg/mL (≈ 23.7 µM)					ΔTm (Calf thymus DNA): 24.3 °C
CN(C)CCN1C(=O)c2cccc3cc(NC(=O)CCN)cc(c23)C1=O									IC50 (K562): 8.5 µM; IC50 (A549): 4.7 µM; IC50 (HeLa [4]): 21.5 µM
CCOP(=O)(CCCCn1cc(CN2C(=O)c3cccc4cccc(c34)C2=O)nn1)OCC					> 250 µM	> 250 µM	> 250 µM	> 250 µM	
CCOP(=O)(CCOCn1cc(CN2C(=O)c3cccc4cc([N+](=O)[O-])cc(c34)C2=O)nn1)OCC					> 250 µM	> 250 µM	> 250 µM	> 250 µM	
CCOP(=O)(CCCn1cc(CN2C(=O)c3cccc4cc([N+](=O)[O-])cc(c34)C2=O)nn1)OCC					> 250 µM	> 250 µM	> 250 µM	> 250 µM	
